In PubChem BioAssay AID1963976 (Molecular Pharmacology Branch, DTP, NCI, 2024):

System: 435261-313-R-J1-PDC tumor spheroid viability
Experiment: Anticancer human tumor 435261-313-R-J1-PDC patient-derived colon adenocarcinoma cell line growth inhibition [PI3K]
Conditions: spheroids with HUVEC and MSC; for IC50: curve of first compound; for viability, T/C: stronger effect = lower value
Method in brief: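 Complex 3D spheroids (cancer cells + endothelial HUVEC + mesenchymal stem cells); drug pairs of targeted agent x inavolisib/alpelisib/duvelisib/copanlisib; half-log series from ~Cmax, max 10 microM if Cmax unknown; endpoint viability.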

[1] = second compound 0.0316 µM, first compound 0.0316 µM
[2] = second compound 0.0316 µM, first compound 0.1 µM
[3] = second compound 0.0316 µM, first compound 0.316 µM
[4] = second compound 0.0316 µM, first compound 1 µM
[5] = second compound 0.0316 µM, first compound 3.16 µM
[6] = second compound 0.0316 µM, first compound 10 µM
[7] = second compound 0.1 µM, first compound 0.0316 µM
[8] = second compound 0.1 µM, first compound 0.1 µM
[9] = second compound 0.1 µM, first compound 0.316 µM
[10] = second compound 0.1 µM, first compound 1 µM
[11] = second compound 0.1 µM, first compound 3.16 µM
[12] = second compound 0.1 µM, first compound 10 µM
[13] = second compound 0.316 µM, first compound 0.0316 µM
[14] = second compound 0.316 µM, first compound 0.1 µM
[15] = second compound 0.316 µM, first compound 0.316 µM
[16] = second compound 0.316 µM, first compound 1 µM
[17] = second compound 0.316 µM, first compound 3.16 µM
[18] = second compound 0.316 µM, first compound 10 µM
[19] = second compound 1 µM, first compound 0.0316 µM
[20] = second compound 1 µM, first compound 0.1 µM
[21] = second compound 1 µM, first compound 0.316 µM
[22] = second compound 1 µM, first compound 1 µM
[23] = second compound 1 µM, first compound 3.16 µM
[24] = second compound 1 µM, first compound 10 µM
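Also: spheroids exposed to compounds for 7 days.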

`CC1(C)CCC(CN2CCN(c3ccc(C(=O)NS(=O)(=O)c4ccc(NCC5CCOCC5)c([N+](=O)[O-])c4)c(Oc4cnc5[nH]ccc5c4)c3)CC2)=C(c2ccc(Cl)cc2)C1` + CC(Nc1ccc2c(c1)OCCn1cc(N3C(=O)OCC3C(F)F)nc1-2)C(N)=O was tested, and the IC50 (second compound 0.00316 µM) was 5.55 µM, the IC50 (second compound 0.01 µM) was 6.17 µM and the IC50 (second compound 0.0316 µM) was 4.21 µM. The IC50 (second compound 0.1 µM) was under 0.0316 µM, the IC50 (second compound 0.316 µM) was under 0.0316 µM and the IC50 (second compound 1 µM) was under 0.0316 µM. For the same molecule, the viability, T/C (second compound 0.00316 µM, first compound 0.0316 µM) was 69.6%, the viability, T/C (second compound 0.00316 µM, first compound 0.1 µM) was 90.5% and the viability, T/C (second compound 0.00316 µM, first compound 0.316 µM) was 79.2%. For the same molecule, the viability, T/C (second compound 0.00316 µM, first compound 1 µM) was 127%, the viability, T/C (second compound 0.00316 µM, first compound 3.16 µM) was 81.3% and the viability, T/C (second compound 0.00316 µM, first compound 10 µM) was 17.4%. It also gave a viability, T/C (second compound 0.01 µM, first compound 0.0316 µM) of 81.3%, a viability, T/C (second compound 0.01 µM, first compound 0.1 µM) of 77.5% and a viability, T/C (second compound 0.01 µM, first compound 0.316 µM) of 79%. It also gave a viability, T/C (second compound 0.01 µM, first compound 1 µM) of 90.8%, a viability, T/C (second compound 0.01 µM, first compound 3.16 µM) of 95.9% and a viability, T/C (second compound 0.01 µM, first compound 10 µM) of 24.8%. It also gave a viability, T/C [1] of 58.7%, a viability, T/C [2] of 59.2% and a viability, T/C [3] of 55.1%. It also gave a viability, T/C [4] of 65.8%, a viability, T/C [5] of 74.4% and a viability, T/C [6] of 11.7%. For the same molecule, the viability, T/C [7] was 34.1%, the viability, T/C [8] was 39.8% and the viability, T/C [9] was 51.5%. For the same molecule, the viability, T/C [10] was 35.1%, the viability, T/C [11] was 33.6% and the viability, T/C [12] was 10.8%. It also gave a viability, T/C [13] of 23.1%, a viability, T/C [14] of 23.3% and a viability, T/C [15] of 22.3%. The viability, T/C [16] was 24%, the viability, T/C [17] was 26.2% and the viability, T/C [18] was 8.22%. The viability, T/C [19] was 16.4%, the viability, T/C [20] was 20% and the viability, T/C [21] was 14.9%. It also gave a viability, T/C [22] of 18.3%, a viability, T/C [23] of 18.8% and a viability, T/C [24] of 7.07%.

For `CC1(C)CCC(CN2CCN(c3ccc(C(=O)NS(=O)(=O)c4ccc(NCC5CCOCC5)c([N+](=O)[O-])c4)c(Oc4cnc5[nH]ccc5c4)c3)CC2)=C(c2ccc(Cl)cc2)C1` + Cc1nc(NC(=O)N2CCCC2C(N)=O)sc1-c1ccnc(C(C)(C)C(F)(F)F)c1, the IC50 (second compound 0.0316 µM) was 5.03 µM, the IC50 (second compound 0.1 µM) was 4.93 µM and the IC50 (second compound 0.316 µM) was 3.53 µM. The IC50 (second compound 1 µM) was under 0.0316 µM, the IC50 (second compound 3.16 µM) was under 0.0316 µM and the IC50 (second compound 10 µM) was under 0.0316 µM. The viability, T/C [1] was 50.2%, the viability, T/C [2] was 81.4% and the viability, T/C [3] was 78.5%. It also gave a viability, T/C [4] of 83%, a viability, T/C [5] of 95.5% and a viability, T/C [6] of 8.94%. The viability, T/C [7] was 51.2%, the viability, T/C [8] was 74.1% and the viability, T/C [9] was 93.8%. It also gave a viability, T/C [10] of 69.1%, a viability, T/C [11] of 90.8% and a viability, T/C [12] of 8.73%. For the same molecule, the viability, T/C [13] was 50.5%, the viability, T/C [14] was 57.7% and the viability, T/C [15] was 44%. It also gave a viability, T/C [16] of 61.1%, a viability, T/C [17] of 58.6% and a viability, T/C [18] of 9.2%. For the same molecule, the viability, T/C [19] was 26.7%, the viability, T/C [20] was 24.3% and the viability, T/C [21] was 27.9%. For the same molecule, the viability, T/C [22] was 25.4%, the viability, T/C [23] was 22.6% and the viability, T/C [24] was 4.29%. It also gave a viability, T/C (second compound 3.16 µM, first compound 0.0316 µM) of 16.6%, a viability, T/C (second compound 3.16 µM, first compound 0.1 µM) of 16.1% and a viability, T/C (second compound 3.16 µM, first compound 0.316 µM) of 13.4%. For the same molecule, the viability, T/C (second compound 3.16 µM, first compound 1 µM) was 18.5%, the viability, T/C (second compound 3.16 µM, first compound 3.16 µM) was 18.1% and the viability, T/C (second compound 3.16 µM, first compound 10 µM) was 4.62%. For the same molecule, the viability, T/C (second compound 10 µM, first compound 0.0316 µM) was 9.42%, the viability, T/C (second compound 10 µM, first compound 0.1 µM) was 8.27% and the viability, T/C (second compound 10 µM, first compound 0.316 µM) was 7.16%. It also gave a viability, T/C (second compound 10 µM, first compound 1 µM) of 8.26%, a viability, T/C (second compound 10 µM, first compound 3.16 µM) of 8.41% and a viability, T/C (second compound 10 µM, first compound 10 µM) of 2.21%.

`Cn1nccc1Nc1nccc(-c2ccn(C(CO)c3ccc(Cl)c(F)c3)c(=O)c2)n1` (stereo not drawn) was tested, and the viability, T/C (compound 0.316 µM) was 68.2% [middle of 4 runs], the viability, T/C (compound 1 µM) was 45.7% [middle of 4 runs] and the viability, T/C (compound 3.16 µM) was 30.4% [middle of 4 runs]. The viability, T/C (compound 10 µM) was 18.4% [middle of 4 runs].
